Measured values as given in article PMC6881253, “The PCNA interaction motifs revisited: thinking outside the PIP-box” (Cellular and Molecular Life Sciences: CMLS, 2019).
Where two headings read alike, the source gives them in different places. Ends that are not written are not given here.

How the values were obtained:
human PCNA [1] = target: T1, human PCNA (Homo sapiens, UniProt P12004); assay: SPR binding of peptides to His6-tagged PCNA captured by anti-His6 antibody; conditions: for Kd: Table S2, SPR, pH 7.5, T 298, This work
Protocol: A stock of > 100 µM PCNA in purification buffer was diluted to the working concentration of 200 nM in 10 mM NaH2PO4, 500 mM NaCl, pH 7.0, 1 mM β-mercaptoethanol. The peptides were dissolved in SPR running buffer (i.e., 10 mM HEPES, 150 mM NaCl, 0.05% (v/v) P20, pH 7.4).
Binding analyses were recorded on a Biacore T200™ instrument (GE Healthcare Life Sciences). A single cycle protocol setup was used for the injection of ligands in flow cells with PCNA captured by an anti-His antibody covalently coupled to a CM5 chip (GE Healthcare Life Sciences, Cat# BR100530). […] Remaining activated NHS-esters were blocked by injecting 35 µL 1 M ethanolamine, pH 8.5. All procedures were conducted at a flow rate of 5 µL min^−1. […] The control surface was not exposed to PCNA. […] The injection cycles alternated between injections cycles of buffer and peptide with no intervening regeneration. […] For the UNG2, APIM, and FEN1 measurements, a final injection cycle of p21 with a final concentration of 50 nM was run as a control of consistency. Complete regeneration of the flow cells between each single-cycle run was accomplished by injecting 10 mM glycine–HCl, pH 1.5 for 60 s with a flow rate of 30 µL min^−1. All measurements were carried out at 25 °C.
Fitting of the data by non-linear regression to a bimolecular interaction model, assuming pseudo-first order reaction condition yielded the association (kon) and dissociation (koff) rate constants. […] For runs with different capture levels of PCNA for each injection cycle, the responses were normalized to a common Rmax value. We used the evaluation software supplied with the instrument for global fitting (BiacoreT200 Evaluation 3.0).

human PCNA [2] = target: T1, human PCNA; assay: ITC, PCNA injected into peptide; format: binding
Protocol: PCNA was buffer exchanged and concentrated using a 10000 MWCO filter (millipore) against the ITC buffer (10 mM HEPES, 150 mM NaCl, 1 mM EDTA, 1 mM TCEP, pH 7.4) for all experiments. The lyophilized peptides were dissolved in the ITC buffer at concentrations between 0.2 and 1 mM determined using A280. For all experiments, PCNA was injected into peptide. For p21^143–157 the peptide concentration was 10 µM, and the PCNA trimer concentration 40 µM. […] For experiments with S2, S1, and D1.2, the peptide concentrations were 20 µM, 60 µM, and 50 µM, respectively, and the PCNA trimer concentration 100 µM, 200 µM, and 269 µM, respectively. All buffer, protein, and peptide solutions were properly degassed prior to loading. ITC was performed with the microCal instrument ITC200 (Malvern). Data were recorded at 25 °C with a stirring speed of 307 rpm and a reference power of 10 µCal s^−1. The heat of dilution was determined from the final injections after saturation of the complex and was subtracted from the data for all peptides except S1 and D1.2 where saturation was not reached. Data from the ITC experiments were analyzed using the Origin 7 software package (MicroCal™). The data were fitted to a single binding site model.
All experiments were carried out in triplicates. […] In the case of the D1.2 peptide, the stoichiometry was kept constant at three peptides per PCNA molecule to achieve convergence in the fitting procedure.

PCNA [3] = target: PCNA; design: method as in 4 sources, one per row (each row's own in cited_ref): ref PMID 19208623 ||| ref PMID 8876181 ||| ref PMID 24728180 ||| ref PMID 10899134; conditions: SPR, cited from earlier work
PCNA [4] = conditions: cited from earlier work
Source text: Supplement 18_2019_3150_MOESM1_ESM.docx, table 2: Table S2: Binding affinities of curated PCNA binding proteins. | column: KD (M)

PCNA [5] = target: PCNA; design: method as in 11 sources, ref PMID 15576034 ||| ref PMID 10858286 ||| ref PMID 23139781 ||| ref PMID 30655288 ||| ref PMID 28621305 ||| ...; conditions: ITC, cited from earlier work
[6] = SPR single-cycle kinetics, bimolecular model, 10 mM HEPES, 150 mM NaCl, 0.05% P20, pH 7.4, 25 °C
[7] = pH 7.5, T 298, ref PMID 19208623
[8] = pH 7.5, T 303, ref PMID 15576034
[9] = pH 7.5, T 279, ref PMID 23677613

T1 sequence (P12004 whole entry): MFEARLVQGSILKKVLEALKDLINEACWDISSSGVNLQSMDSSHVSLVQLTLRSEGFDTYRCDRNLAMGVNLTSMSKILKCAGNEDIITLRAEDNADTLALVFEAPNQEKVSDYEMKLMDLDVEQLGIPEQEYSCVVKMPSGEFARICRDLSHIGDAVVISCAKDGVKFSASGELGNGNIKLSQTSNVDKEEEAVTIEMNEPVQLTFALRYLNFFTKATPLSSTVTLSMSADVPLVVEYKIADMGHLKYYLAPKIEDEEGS

Work on Ac-MDRWLVKW-NH2 [APIM] yielded a Kd (human PCNA [1]) of 10.9 µM.
With “Ac-RKRRATSMTDFYHSKRRL-NH2 [p21^140–157,Q144A]” the “fold drop in the affinity for PCNA on mutating Q at the first position to alanine” value (human PCNA [2]; ITC) was 50 fold.
For Ac-RKRRQGRLDDFFHSKRRL-NH2, the “fold change (increase) of affinity for PCNA on grafting p21 flanking regions to Fen1” value (human PCNA [2]; ITC, versus Fen1 peptide) was 60 fold.
Work on Ac-RQSTLYSFFPKSPAL-NH2 [MSH6] yielded a Kd (human PCNA [1]) of 2.61 µM.
Ac-RQTSMTDFYHSKRRL-NH2 [p21] showed a koff (human PCNA [1]; [6]) of 0.14 ± 0.0003 s⁻¹ and a kon (human PCNA [1]; [6]) of 1.7e+06 ± 1e+10 M⁻¹ s⁻¹.
Substance Ac-SESSQTSMTDFYHSKRRL-NH2 [S1] has a Kd (human PCNA [2]; 10 mM HEPES, 150 mM NaCl, 1 mM EDTA, 1 mM TCEP, pH 7.4, 25 °C, one set of sites, mean of triplicates) of 8.3 ± 1.9 µM.
Work on Ac-TQGRLDDFFKVTGSL-NH2 [FEN1] yielded a Kd (human PCNA [1]) of 44.9 µM.
For “CKRPRPEGMQTLESFFKPLTH [PolEta 694–713, literature DNA polymerase η peptide]”, the Kd (PCNA [3]; [7]) is listed as 0.4 µM.
In the case of “FTHFEKEKQHDIRSFFVPQPKK [ZRANB3 511–532, literature ZRANB3 PIP-box peptide]”, the Kd (PCNA [4]; method not given, pH 7.5, T 298, ref PMID 28621305) is listed as 4.8 µM.
For “GKANRQVSITGFFQRK* [p66Polδ 451–466, literature peptide of DNA polymerase δ p66 subunit]”, the Kd (PCNA [5]; [8]) is given as 15.6 µM.
In the case of “KDKFIRRWVHKEGFSG [FBH1 605-620, literature FBH1 peptide]”, the Kd (PCNA [5]; [9]) is given as 0.59 µM.
For “KQRVRVKTVPSLFQAKLD TFLWS [TRAIP 447–469, literature TRAIP peptide]”, the Kd (PCNA [5]; pH 7.4, T 298, ref PMID 26711499) is listed as 30.7 µM.
In the case of “KRRQTSMTDFYH [p21 141–152, literature p21 peptide]”, the Kd (PCNA [5]; pH 7, T 303, ref PMID 23139781) is listed as 0.625 µM and the Kd (PCNA [5]; pH 7, T 308, ref PMID 23139781) is listed as 1.1 µM.
In the case of “KTSPGRSVKEEAQNLIRHFFHGRARCES [RecQ5 952-979, literature RecQ5 peptide]”, the Kd (PCNA [5]; pH 7.0, T 308, ref PMID 30655288) is listed as 210 µM.
For “MDRFLVKGAQGGLLRK [ABH2 1-16, literature ABH2 APIM peptide]”, the Kd (PCNA [5]; [9]) is given as 0.32 µM.
In the case of MGRKRLITDSYPVVKRREG [p12 1-19], the Kd (PCNA [5]; pH 7.0, T 298, ref PMID 30655288) is listed as 38 µM and the Kd (PCNA [4]; NMR, pH 7.0, T 308, ref PMID 30655288) is listed as 130 µM.
For MIGQKTLYSFFTPSP [UNG2], the Kd (human PCNA [1]) was 34.1 µM.
For “PANGEQLHLVNYVEDTLDSIES [ING1 4–25, literature ING1 peptide]”, the Kd (PCNA [4]; NMR, pH 7, T 308, ref PMID 23139781) is given as 12500 µM.
In the case of “PKWQKGIGEFFR [p15 59–70, literature p15(PAF) peptide]”, the Kd (PCNA [5]; pH 7, T 308, ref PMID 25762514) is given as 83 µM.
For “PRPEGMQTLESFFKPLTH* [PolEta 696–713, literature DNA polymerase η peptide]”, the Kd (PCNA [5]; pH 7.4, T 298, ref PMID 26903512) is listed as 11 µM.
In the case of “QHGKKDSKITDHFMRLPKA [PARG 402–420, literature PARG peptide]”, the Kd (PCNA [5]; pH 7.4, T 298, ref PMID 28934471) is listed as 3.3 µM.
In the case of “QVRRQSLASKHGSDITRFLVKK [ZRANB3 1058–79, literature ZRANB3 APIM peptide]”, the Kd (PCNA [5]; pH not given, T 298, ref PMID 28621305) is given as 9.2 µM.
For “RGQGSQRCIPEFFLAGKQPCTN [FBH1 52–72, literature FBH1 peptide]”, the Kd (PCNA [5]; [9]) is listed as 0.25 µM.
In the case of “RQGSTQGRLDDFFKVTGSLSSA [FEN1 332–353, literature FEN1 peptide]”, the Kd (PCNA [5]; [8]) is given as 59 µM.
For “SKSRQGSTQGRLDDFF [FEN1 329–344, literature FEN1 peptide]”, the Kd (PCNA [3]; pH 7.4, T not given, ref PMID 24728180) is given as 0.0846 µM.
In the case of “SQGRKRRQTSMTDFYHSKRR [p21 137–156, literature p21 peptide]”, the Kd (PCNA [3]; [7]) is listed as 0.065 µM.
In the case of “p15 1–111: full-length p15(PAF) protein, literature”, the Kd (PCNA [5]; pH 7, T 298, ref PMID 25762514) is listed as 0.11 µM and the Kd (PCNA [5]; pH 7, T 308, ref PMID 25762514) is listed as 2.5 µM.
